In ChEMBL document CHEMBL4270577, “Synthesis, anticancer activity and molecular modeling studies of 1,2,4-triazole derivatives as EGFR inhibitors” (Eur J Med Chem, 2018):

Experiments:
SR = experiment: Growth inhibition of human SR cells at 10 uM incubated for 48 hrs by sulforhodamine B assay relative to control; type: functional; details: read-out: GI
NCI-H460 = experiment: Growth inhibition of human NCI-H460 cells at 10 uM incubated for 48 hrs by sulforhodamine B assay relative to control; type: functional; details: NCI-H460, 48 h, read-out: GI
HCT-15 = experiment: Growth inhibition of human HCT15 cells at 10 uM incubated for 48 hrs by sulforhodamine B assay relative to control; type: functional; details: HCT-15, 48 h, read-out: GI
UACC-257 = experiment: Growth inhibition of human UACC257 cells at 10 uM incubated for 48 hrs by sulforhodamine B assay relative to control; type: functional; details: UACC-257, 48 h, read-out: GI
HT-29 = experiment: Antiproliferative activity against human HT-29 cells after 48 hrs by propidium iodide staining-based fluorometric analysis; type: functional, cell-based; details: HT-29, 48 h
OVCAR-3 = experiment: Growth inhibition of human OVCAR3 cells at 10 uM incubated for 48 hrs by sulforhodamine B assay relative to control; type: functional; details: OVCAR-3, 48 h, read-out: GI
LOX IMVI = experiment: Growth inhibition of human LOXIMVI cells at 10 uM incubated for 48 hrs by sulforhodamine B assay relative to control; type: functional; details: read-out: GI
PC-3 = experiment: Growth inhibition of human PC3 cells at 10 uM incubated for 48 hrs by sulforhodamine B assay relative to control; type: functional; details: PC-3, 48 h, read-out: GI
786-0 = experiment: Growth inhibition of human 786-0 cells at 10 uM incubated for 48 hrs by sulforhodamine B assay relative to control; type: functional; details: 786-0, 48 h, read-out: GI
SK-MEL-28 = experiment: Growth inhibition of human SK-MEL-28 cells at 10 uM incubated for 48 hrs by sulforhodamine B assay relative to control; type: functional; details: SK-MEL-28, 48 h, read-out: GI
UACC-62 = experiment: Growth inhibition of human UACC62 cells at 10 uM incubated for 48 hrs by sulforhodamine B assay relative to control; type: functional; details: UACC-62, 48 h, read-out: GI
NCI/ADR-RES = experiment: Growth inhibition of human NCI/ADR-RES cells at 10 uM incubated for 48 hrs by sulforhodamine B assay relative to control; type: functional; details: read-out: GI
SNB-75 = experiment: Growth inhibition of human SNB75 cells at 10 uM incubated for 48 hrs by sulforhodamine B assay relative to control; type: functional; details: SNB-75, 48 h, read-out: GI
HOP-92 = experiment: Growth inhibition of human HOP92 cells at 10 uM incubated for 48 hrs by sulforhodamine B assay relative to control; type: functional; details: HOP-92, 48 h, read-out: GI
HCC 2998 = experiment: Growth inhibition of human HCC2998 cells at 10 uM incubated for 48 hrs by sulforhodamine B assay relative to control; type: functional; details: HCC 2998, 48 h, read-out: GI
Hs-578T = experiment: Growth inhibition of human Hs 578T cells at 10 uM incubated for 48 hrs by sulforhodamine B assay relative to control; type: functional; details: read-out: GI
A549 = experiment: Growth inhibition of human A549/ATCC cells at 10 uM incubated for 48 hrs by sulforhodamine B assay relative to control; type: functional; details: A549, 48 h, read-out: GI
MIA PaCa-2 = experiment: Antiproliferative activity against human MIAPaCa2 cells after 48 hrs by propidium iodide staining-based fluorometric analysis; type: functional, cell-based; details: MIA PaCa-2, 48 h
BT-549 = experiment: Growth inhibition of human BT549 cells at 10 uM incubated for 48 hrs by sulforhodamine B assay relative to control; type: functional; details: BT-549, 48 h, read-out: GI
SF-268 = experiment: Growth inhibition of human SF268 cells at 10 uM incubated for 48 hrs by sulforhodamine B assay relative to control; type: functional; details: SF-268, 48 h, read-out: GI
M14 = experiment: Growth inhibition of human M14 cells at 10 uM incubated for 48 hrs by sulforhodamine B assay relative to control; type: functional; details: M14, 48 h, read-out: GI
MDA-MB-468 = experiment: Growth inhibition of human MDA-MB-468 cells at 10 uM incubated for 48 hrs by sulforhodamine B assay relative to control; type: functional; details: MDA-MB-468, 48 h, read-out: GI
HOP-62 = experiment: Growth inhibition of human HOP62 cells at 10 uM incubated for 48 hrs by sulforhodamine B assay relative to control; type: functional; details: HOP-62, 48 h, read-out: GI
UO-31 = experiment: Growth inhibition of human UO31 cells at 10 uM incubated for 48 hrs by sulforhodamine B assay relative to control; type: functional; details: UO-31, 48 h, read-out: GI
SK-OV-3 = experiment: Growth inhibition of human SKOV3 cells at 10 uM incubated for 48 hrs by sulforhodamine B assay relative to control; type: functional; details: SK-OV-3, 48 h, read-out: GI
TK-10 = experiment: Growth inhibition of human TK10 cells at 10 uM incubated for 48 hrs by sulforhodamine B assay relative to control; type: functional; details: TK-10, 48 h, read-out: GI

SMILES | inhibition of growth at 10 µM (SR) [%] | inhibition of growth at 10 µM (NCI-H460) [%] | inhibition of growth at 10 µM (HCT-15) [%] | inhibition of growth at 10 µM (UACC-257) [%] | IC50 (HT-29) [µM] | inhibition of growth at 10 µM (LOX IMVI) [%] | inhibition of growth at 10 µM (PC-3) [%] | inhibition of growth at 10 µM (786-0) [%] | inhibition of growth at 10 µM (UACC-62) [%] | inhibition of growth at 10 µM (NCI/ADR-RES) [%] | inhibition of growth at 10 µM (SNB-75) [%] | inhibition of growth at 10 µM (HOP-92) [%] | inhibition of growth at 10 µM (Hs-578T) [%] | inhibition of growth at 10 µM (A549) [%] | IC50 (MIA PaCa-2) [µM] | inhibition of growth at 10 µM (SF-268) [%] | inhibition of growth at 10 µM (M14) [%] | inhibition of growth at 10 µM (MDA-MB-468) [%] | inhibition of growth at 10 µM (HOP-62) [%] | inhibition of growth at 10 µM (UO-31) [%] | further results
COc1ccc(-c2nc3sc(-c4ccccc4)cn3n2)cc1 | 58 | 65 | 69 | 28 | 6.6 | 45 | 33 | 11 | 42 | 66 | 34 | 32 | 40 | 49 | 4.9 | 28 | 71 | 81 | 49 | 38 | inhibition of growth at 10 µM (OVCAR-3): 41%; inhibition of growth at 10 µM (SK-MEL-28): 32%; inhibition of growth at 10 µM (HCC 2998): 22%; inhibition of growth at 10 µM (BT-549): 26%; inhibition of growth at 10 µM (SK-OV-3): 32%
Clc1ccc(-c2cn3nc(-c4ccccc4)nc3s2)cc1 | – | 37 | 9 | 15 | 5.9 | 19 | 31 | 53 | 18 | 34 | 36 | 53 | 40 | 36 | 6.5 | 20 | 15 | 57 | 40 | 40 | inhibition of growth at 10 µM (OVCAR-3): 24%; inhibition of growth at 10 µM (TK-10): 18%; inhibition of growth at 10 µM (HCC 2998): 10%; inhibition of growth at 10 µM (SK-OV-3): 64%
COc1cc(-c2nc3sc(-c4ccccc4)cn3n2)cc(OC)c1OC | 65 | 18 | 42 | 10 | 4.9 | 33 | 53 | 14 | 31 | 39 | 24 | 50 | 26 | 23 | 4.7 | 9 | 25 | 35 | 15 | 43 | inhibition of growth at 10 µM (SK-MEL-28): 4%; inhibition of growth at 10 µM (TK-10): 6%; inhibition of growth at 10 µM (BT-549): 18%
